In patent US6984656B2, “Core modified porphyrins” (priority 2001, dated 2006):
Like-named read-outs stand apart in the source and are kept apart here. Marks after values point to notes of the source that are not given here.

Tests used:
Colo-26 cells = assay: Dark and light-induced toxicity toward Colo-26 cells in culture; format: cell-based, murine; conditions: for EC50: 4 J cm^−2 of 590-800 nm light
Description: In order to compare relative phototoxicity, the core-modified porphyrins of Table 1 were evaluated in culture for dark and light-induced toxicities toward Colo-26 cells, a murine colon carcinoma cell line.

[1] = Rate of photobleaching in phosphate-buffered saline; format: physicochemical; conditions: PBS; 570-750 nm light at 500 mW cm^−2; constant initial absorbance
From the text: One limitation of PDT dosimetry is the rate of photobleaching of the photosensitizer, which can be problematic with Photofrin® and even more problematic with the bacteriochlorins and the chlorins (such as HPPH).

[2] = Quantum yield for the generation of singlet oxygen; format: physicochemical; conditions: aqueous solution
[3] = Single-photon quantum yield for fluorescence; format: physicochemical; conditions: for emissiveness relative to dithiaporphyrin analogue: 7 vs 6, 10 vs DH-82; for quantum yield for fluorescence φF (± σ): one-photon, standard TPPS4 in water
From the text: In vivo fluorescence techniques have had significant impact on the development of PDT with respect to the pharmacokinetics of sensitizers and to PDT dosimetry. Photofrin® has been used in fluorescent diagnostics and the fluorescence of TPPS4 has been extensively studied. […] The quantum yield standard used in these studies was a freshly prepared solution of TPPS4 (φF =0.12) dissolved in water.

[4] = in vivo; cited from earlier work
mice = conditions: 150 mg/kg; cited from earlier work
Colo-26 tumors = assay: PDT against implanted Colo-26 tumors in BALB/c mice; format: in vivo
Description: Core-modified porphyrin 6 gave a PDT response in vivo with 694-nm light in BALB/c mice bearing Colo-26 tumors. Animals treated with photosensitizer 6 at 3.25 mg (3.0 μmol)/kg and light required 10.3±0.8 d to reach 400-mm^3 tumor volume, which was more than double the time for control animals (4.3±1.0 d) receiving neither drug nor light (P <0.01).
The animals were irradiated 4 h post-injection with 135 J cm^−2 of 694-nm red light from a dye laser (75 mW cm^−2 for 30 min). […] For comparison purposes, BALB/C mice bearing Colo-26 tumors were given 2.5 mg (4.0 μmol)/kg of Photofrin® as a 5% aqueous dextrose solution and were irradiated 24 h later with 135 J cm^−2 of 630-nm laser light at a power of 75 mW cm^−2 for PDT with Photofrin®.
Animals initially were given i.v. (tail vein) injections of sensitizer at various concentrations (0.05to 5.0 μmol/kg). Mice were restrained at various times thereafter without anesthesia in specially designed holders. Fischer 344 female rats were chemically restrained at various times thereafter. In both models, tumors or normal back skin were exposed to light from a xenon arc lamp with appropriate filters or to a dye laser tuned to the absorption maximum determined by in vivo reflectance measurements. Power density of delivered light typically fell in the range of 10-200 mW cm^−2 evenly distributed to a spot size of roughly 1.5 cm and measured by a radiometer. Several dose rates were explored to examine role/limitation of available oxygen on the photodynamic process. Intratumor temperatures were measured with an Omega HYP-O microthermocouple and, when necessary, a stream of nitrogen gas was used to keep intratumor temperatures below 37° C. Animals were examined and measured daily for the first 14 days post treatment and every other day thereafter until the tumors reached 400 mm^3 in mice or until the tumors double in size for Fischer 344 female rats or for 90 days. Tumor size were measured in two dimensions with a caliper. Time to 400 mm^3 or volume doubling times of tumors from control and PDT-treated groups (8-12 animals per group) were compared statistically using the SAS statistical program (SAS, Inc., Cary, N.C.). A P-value of <0.05 is considered significant. The degree of damage to the normal skin within the irradiation field also were noted. Disappearance of tumor with minimal damage to normal skin is the most desirable response. Animals are considered cured if no tumor regrowth occurs by 90 days. In all studies, three control groups were utilized in addition to the treatment group receiving both sensitizer and light: 1) a complete control receiving neither drug nor light, 2) a group receiving sensitizer only, and 3) a group receiving light only. Representative animals from each of the treatment groups were processed for histology immediately, one day, or two weeks after irradiation. Step sections through the tumor were used to define the boundaries of tumor cell damage and death as a function of distance from the skin surface.

BFS1 sarcoma = conditions: cited from earlier work
two tumor cell lines = assay: Phototoxicity in two tumor cell lines in vitro; format: cell-based
Description: The topological and chemical properties of dichalcogenaporphyrins impart unexpected biological properties relative to the corresponding porphyrin derivatives. 5,10,15,20-tetrakis(4-sulfonatophenyl)-21-thiaporphyrin 8 and 21-selenaporphyrin 9 (FIG. 13) were prepared and evaluated the phototoxicity in two tumor cell lines in vitro.

[5] = test system: R3230AC rat mammary adenocarcinoma cells; assay: Phototoxicity toward R3230AC cells in culture; format: cell-based; conditions: 10 μM, 24 h; 570-800 nm light, 0.9 J cm^−2; 24 h post-irradiation
Description: Similar results were obtained with R3230AC rat mammary adenocarcinoma cells in vitro. […] Light-treated cells and dark controls were incubated for 24 h and cell survival was determined. The surviving fraction, 24 h post-irradiation, is shown graphically in FIG. 4c.

BALB/c mice = assay: Preliminary toxicity, single intravenous injection in BALB/c mice
[6] = 24 h incubation in dark, survival 24 h later, read-out: effective concentration to give 50% cell-kill of Colo-26 cells in vitro (EC50)
[7] = read-out: EC50 against Colo-26 cells
[8] = 135 J cm^−2, DH-105 2.5, DH-82 0.13, MA-99 0.15 mg/kg, 694 nm 4 h post-injection, Photofrin® 2.5 mg/kg, 630 nm 24 h

O=C([O-])COc1ccc(-c2c3nc(c(-c4ccccc4)c4ccc(s4)c(-c4ccccc4)c4nc(c(-c5ccc(OCC(=O)[O-])cc5)c5ccc2s5)C=C4)C=C3)cc1.[Na+].[Na+] [Compound 15]
EC50 (Colo-26 cells; [6]): 0.15 µM
rate of photobleaching (kbleach) [1]: 0.18 ± 0.02 × 10^4 s^−1

O=S(=O)([O-])c1ccc(-c2c3nc(c(-c4ccc(F)cc4)c4ccc(s4)c(-c4ccc(F)cc4)c4nc(c(-c5ccc(S(=O)(=O)[O-])cc5)c5ccc2[se]5)C=C4)C=C3)cc1.[Na+].[Na+] [Compound 10]
EC50 (Colo-26 cells; [6]): 2.1 µM
quantum yield for the generation of singlet oxygen φ(^1O2) [2]: 0.65 ± 0.01
emissiveness relative to dithiaporphyrin analogue [3]: 2%
quantum yield for fluorescence φF (± σ) [3]: 1.4 (± 0.1) × 10^−4

O=S(=O)([O-])c1ccc(-c2c3nc(c(-c4ccc(F)cc4)c4ccc([se]4)c(-c4ccc(F)cc4)c4nc(c(-c5ccc(S(=O)(=O)[O-])cc5)c5ccc2s5)C=C4)C=C3)cc1.[Na+].[Na+] [Compound 11]
EC50 (Colo-26 cells; [6]): 1.2 µM
quantum yield for the generation of singlet oxygen φ(^1O2) [2]: 0.64 ± 0.01

CCCCCCOC(C)c1c(C)c2cc3nc(c4c5[nH]c(cc6nc(cc1[nH]2)C(C)=C6CC)c(C)c5C(=O)C4)[C@@H](CCC(=O)O)[C@@H]3C (stereo partly drawn) [HPPH, reference compound]
EC50 (Colo-26 cells; [7]): 0.3 µM
EC50 fold lower than for Photofrin® (Colo-26 cells; Colo-26 cells, 590-800 nm light): 30 fold

benzoporphyrin derivative
duration of skin photosensitivity [4]: 3 to 5 days

CC(=O)[O-].CC(=O)[O-].CCc1c(CC)c2cc3nc(cnc4cc(OCCOCCOCCOC)c(OCCOCCOCCOC)cc4ncc4nc(cc1[n-]2)C(CCCO)=C4C)C(C)=C3CCCO.O.[Lu+3] [Lu-Tex, lutetium texaphyrin]
skin photosensitivity [4]: minimal skin photosensitivity

O=S(=O)(O)c1ccc(-c2c3nc(c(-c4ccc(S(=O)(=O)O)cc4)c4ccc([nH]4)c(-c4ccc(S(=O)(=O)O)cc4)c4nc(c(-c5ccc(S(=O)(=O)O)cc5)c5ccc2[nH]5)C=C4)C=C3)cc1 [TPPS4, 5,10,15,20-Tetrakis (4-sulfonato-phenyl)porphyrin, reference compound]
EC50 (Colo-26 cells; [6]): 125 µM
toxicity at high concentrations (mice): neurotoxicity
time to reach 400-mm^3 tumor volume (Colo-26 tumors; TPPS4 at 10 mg/kg): 6.7 ± 1.1 days
quantum yield for the generation of singlet oxygen φ(^1O2) [2]: 0.71^b

O=S(=O)([O-])c1ccc(-c2c3nc(c(-c4ccc(S(=O)(=O)[O-])cc4)c4ccc(s4)c(-c4ccc(S(=O)(=O)[O-])cc4)c4nc(c(-c5ccc(S(=O)(=O)[O-])cc5)c5ccc2[nH]5)C=C4)C=C3)cc1.[Na+].[Na+].[Na+].[Na+] [sulfonated 1]
efficacy in vivo relative to chlorin e6 (BFS1 sarcoma; BFS1 sarcoma-bearing mice): comparable to chlorin e6 for efficacy

5,10,15,20-tetrakis(4-sulfonatophenyl)-21-thiaporphyrin [Compound 8]
EC50 (Colo-26 cells; [6]): > 100 µM
quantum yield for the generation of singlet oxygen φ(^1O2) [2]: 0.80 ± 0.02
phototoxicity in two tumor cell lines (two tumor cell lines): Neither 21-core-modified porphyrin displayed significant phototoxicity

O=S(=O)([O-])c1ccc(-c2c3nc(c(-c4ccc(C(F)(F)F)cc4)c4ccc(s4)c(-c4ccc(C(F)(F)F)cc4)c4nc(c(-c5ccc(S(=O)(=O)[O-])cc5)c5ccc2s5)C=C4)C=C3)cc1.[Na+].[Na+] [Compound 13]
EC50 (Colo-26 cells; [6]): > 100 µM
rate of photobleaching (kbleach) [1]: 0.13 ± 0.02 × 10^4 s^−1

CN(C)c1ccc(-c2c3nc(c(-c4ccc(S(=O)(=O)[O-])cc4)c4ccc(s4)c(-c4ccc(S(=O)(=O)[O-])cc4)c4nc(c(-c5ccc(N(C)C)cc5)c5ccc2s5)C=C4)C=C3)cc1.[Na+].[Na+] [Compound 14]
phototoxicity relative to Photofrin® toward R3230AC cells (surviving fraction, FIG. 4c) [5]: more phototoxic than Photofrin®
EC50 (Colo-26 cells; [6]): 0.6 µM
quantum yield for the generation of singlet oxygen φ(^1O2) [2]: 0.60 ± 0.02
quantum yield for fluorescence φF (± σ) [3]: <10^−4
rate of photobleaching (kbleach) [1]: 0.77 ± 0.04 × 10^4 s^−1

O=S(=O)([O-])c1ccc(-c2c3nc(c(-c4ccc(S(=O)(=O)[O-])cc4)c4ccc([se]4)c(-c4ccc(S(=O)(=O)[O-])cc4)c4nc(c(-c5ccc(S(=O)(=O)[O-])cc5)c5ccc2[nH]5)C=C4)C=C3)cc1.[Na+].[Na+].[Na+].[Na+] [Compound 9]
phototoxicity in two tumor cell lines (two tumor cell lines): Neither 21-core-modified porphyrin displayed significant phototoxicity

O=S(=O)([O-])c1ccc(-c2c3nc(c(-c4ccc(F)cc4)c4ccc([se]4)c(-c4ccc(F)cc4)c4nc(c(-c5ccc(S(=O)(=O)[O-])cc5)c5ccc2[se]5)C=C4)C=C3)cc1.[Na+].[Na+] [DH-105]
phototoxicity relative to Photofrin® toward R3230AC cells (surviving fraction, FIG. 4c) [5]: more phototoxic than Photofrin®
EC50 (Colo-26 cells; [7]): 7.9 µM
cures (no tumor regrowth 90 days post-treatment) (Colo-26 tumors; [8]): three cures
mean time to 400 mm^3 of the animals not cured (Colo-26 tumors; [8]): 17 ± 3 days
gross abnormalities in organs and tissues after sacrifice (BALB/c mice; 10 mg/kg i.v., after 90 days): no gross abnormalities were noted
toxicity and morbidity (BALB/c mice; 10 mg/kg, followed 90 days post-injection, normal vivarium light): neither toxicity nor morbidity was observed
quantum yield for the generation of singlet oxygen φ(^1O2) [2]: 0.55 ± 0.02
fluorescence emission detected [3]: no detectable emission
quantum yield for fluorescence φF (± σ) [3]: <10^−4
rate of photobleaching (kbleach) [1]: 1.44 ± 0.03 × 10^4 s^−1

O=S(=O)([O-])c1ccc(-c2c3nc(c(-c4ccc(S(=O)(=O)[O-])cc4)c4ccc([se]4)c(-c4ccc(S(=O)(=O)[O-])cc4)c4nc(c(-c5ccc(S(=O)(=O)[O-])cc5)c5ccc2[nH]5)C=C4)C=C3)cc1.[Na+].[Na+].[Na+].[Na+] [sulfonated 2]
skin photosensitization (BFS1 sarcoma; animals irradiated 24 h post-injection): no skin photosensitization was observed

O=S(=O)(O)c1ccc(-c2c3nc(c(-c4ccc(S(=O)(=O)O)cc4)c4ccc([se]4)c(-c4ccc(S(=O)(=O)O)cc4)c4nc(c(-c5ccc(S(=O)(=O)O)cc5)c5ccc2[se]5)C=C4)C=C3)cc1 [Compound 7]
EC50 (Colo-26 cells; [6]): > 100 µM
emissiveness relative to dithiaporphyrin analogue [3]: 10%
quantum yield for fluorescence φF (± σ) [3]: 8.9 (± 0.4) × 10^−4
